{
  "source": "ChEMBL document CHEMBL2439969",
  "about": "“Replacement of Thr32 and Gln34 in the C-terminal neuropeptide Y fragment 25-36 by cis-cyclobutane and cis-cyclopentane β-amino acids shifts selectivity toward the Y(4) receptor” (J Med Chem, 2013)",
  "key": {"[1]": {"target": "T1, Neuropeptide Y receptor type 1 (Homo sapiens, UniProt P25929)", "T1 sequence (P25929 whole entry)": "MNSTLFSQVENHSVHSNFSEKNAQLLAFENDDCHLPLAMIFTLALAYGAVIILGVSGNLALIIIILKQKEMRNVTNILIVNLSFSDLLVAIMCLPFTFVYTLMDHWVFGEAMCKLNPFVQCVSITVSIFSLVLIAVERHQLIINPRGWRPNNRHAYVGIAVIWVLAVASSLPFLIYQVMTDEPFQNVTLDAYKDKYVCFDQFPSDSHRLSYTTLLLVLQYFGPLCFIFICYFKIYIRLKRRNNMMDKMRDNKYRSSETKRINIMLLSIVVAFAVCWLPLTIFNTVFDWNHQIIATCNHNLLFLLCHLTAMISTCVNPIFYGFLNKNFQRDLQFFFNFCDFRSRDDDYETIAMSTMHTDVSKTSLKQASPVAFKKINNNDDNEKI", "assay": "Binding affinity to Y1 receptor (unknown origin)"}, "[2]": {"target": "T2, Neuropeptide Y receptor type 5 (Homo sapiens, UniProt Q15761)", "T2 sequence (Q15761 whole entry)": "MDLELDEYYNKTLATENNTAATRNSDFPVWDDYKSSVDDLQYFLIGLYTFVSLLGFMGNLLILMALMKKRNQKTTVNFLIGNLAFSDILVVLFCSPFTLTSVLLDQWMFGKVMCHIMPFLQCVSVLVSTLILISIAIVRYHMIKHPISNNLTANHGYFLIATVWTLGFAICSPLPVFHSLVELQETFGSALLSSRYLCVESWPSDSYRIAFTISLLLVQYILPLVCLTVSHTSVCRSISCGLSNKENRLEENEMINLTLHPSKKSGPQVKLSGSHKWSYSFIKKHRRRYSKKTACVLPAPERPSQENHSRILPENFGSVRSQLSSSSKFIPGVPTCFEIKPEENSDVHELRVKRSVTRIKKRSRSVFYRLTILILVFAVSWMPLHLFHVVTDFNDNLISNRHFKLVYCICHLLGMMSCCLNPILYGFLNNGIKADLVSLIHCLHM", "assay": "Binding affinity to Y5 receptor (unknown origin)"}, "[3]": {"assay": "Binding affinity to Y2 receptor (unknown origin)", "design": "species or system Homo sapiens"}, "[4]": {"target": "T3, Neuropeptide Y receptor type 2 (Homo sapiens, UniProt P49146)", "T3 sequence (P49146 whole entry)": "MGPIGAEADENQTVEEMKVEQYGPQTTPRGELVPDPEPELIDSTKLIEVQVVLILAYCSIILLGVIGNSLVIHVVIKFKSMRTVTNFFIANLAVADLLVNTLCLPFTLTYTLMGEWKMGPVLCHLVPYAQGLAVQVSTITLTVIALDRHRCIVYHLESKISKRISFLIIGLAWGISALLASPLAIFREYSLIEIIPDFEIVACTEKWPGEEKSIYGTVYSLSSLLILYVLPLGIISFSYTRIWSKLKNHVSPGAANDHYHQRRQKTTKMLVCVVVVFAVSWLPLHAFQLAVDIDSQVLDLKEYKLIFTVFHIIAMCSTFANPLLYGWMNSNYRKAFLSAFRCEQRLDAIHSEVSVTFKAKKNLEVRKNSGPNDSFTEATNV", "assay": "Displacement of Cy5-pNPY from human Y2 receptor expressed in CHO cells after 90 to 120 mins by flow cytometry", "format": "cell-based"}, "[5]": {"target": "T4, Neuropeptide Y receptor type 4 (Homo sapiens, UniProt P50391)", "T4 sequence (P50391 whole entry)": "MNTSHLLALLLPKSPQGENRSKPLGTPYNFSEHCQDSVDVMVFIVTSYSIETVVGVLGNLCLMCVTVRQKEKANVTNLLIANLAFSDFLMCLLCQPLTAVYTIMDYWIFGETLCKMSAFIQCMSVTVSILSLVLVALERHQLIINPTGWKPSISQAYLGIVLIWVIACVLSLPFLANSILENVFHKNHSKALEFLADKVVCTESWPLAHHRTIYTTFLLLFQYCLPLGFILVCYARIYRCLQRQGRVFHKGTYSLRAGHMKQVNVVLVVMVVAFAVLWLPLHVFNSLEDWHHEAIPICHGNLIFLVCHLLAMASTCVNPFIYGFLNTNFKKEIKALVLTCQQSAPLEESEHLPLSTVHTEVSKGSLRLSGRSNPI", "assay": "Displacement of Cy5-[K4]hPP from human Y4 receptor expressed in CHO cells after 90 to 120 mins by flow cytometry", "format": "cell-based"}, "[6]": {"target": "T2, Neuropeptide Y receptor type 5", "assay": "Displacement of Cy5-pNPY from human Y5 receptor expressed in human HEC-1B cells after 90 to 120 mins by flow cytometry", "format": "cell-based"}, "[7]": {"target": "T1, Neuropeptide Y receptor type 1", "assay": "Displacement of Cy5-pNPY from human Y1 receptor expressed in HEL cells after 90 to 120 mins by flow cytometry", "format": "cell-based"}, "[8]": {"target": "T4, Neuropeptide Y receptor type 4", "assay": "Partial agonist activity at human Y4 receptor expressed in sf9 cells assessed as hydrolysis of [gamma-33P]GTP after 2 mins by scintillation counting analysis"}, "[9]": {"target": "T4, Neuropeptide Y receptor type 4", "assay": "Partial agonist activity at human Y4 receptor expressed in sf9 cells assessed as hydrolysis of [gamma-33P]GTP after 2 mins by scintillation counting analysis relative to hPP"}, "[10]": {"assay": "Binding affinity to rabbit kidney Y2 receptor by radioligand binding assay", "design": "species or system Oryctolagus cuniculus"}, "[11]": {"target": "T3, Neuropeptide Y receptor type 2", "assay": "Binding affinity to human Y2 receptor expressed in human SMS-KAN cells by radioligand binding assay", "format": "cell-based"}, "[12]": {"target": "T4, Neuropeptide Y receptor type 4", "assay": "Agonist activity at human Y4 receptor expressed in sf9 cells assessed as hydrolysis of [gamma-33P]GTP after 2 mins by scintillation counting analysis"}, "[13]": {"target": "T3, Neuropeptide Y receptor type 2", "assay": "Binding affinity to Y2 receptor (unknown origin) expressed in human LN319 cells by radioligand binding assay", "format": "cell-based"}},
  "note": "pEC50, pIC50, pKi: −log10 of the molar value. Residues, ends and D or L forms follow the SMILES beside them.",
  "data": [
    {"molecule": "CC[C@H](C)[C@H](NC(=O)[C@H](Cc1ccc(O)cc1)NC(=O)[C@H](Cc1cnc[nH]1)NC(=O)[C@H](CCCNC(=N)N)NC(C)=O)C(=O)N[C@@H](CC(N)=O)C(=O)N[C@@H](CC(C)C)C(=O)N[C@H](C(=O)N[C@H](C(=O)N[C@@H](CCCNC(=N)N)C(=O)N[C@@H]1[C@H](C(=O)N[C@@H](CCCNC(=N)N)C(=O)N[C@@H](Cc2ccc(O)cc2)C(N)=O)[C@H]1C(=O)OC)[C@@H](C)O)[C@@H](C)CC", "note": "(HELM PEPTIDE1{[ac].R.H.Y.I.N.L.I.T.R.[COC(=O)[C@H]1[C@H](N[*:1])[C@@H]1C(=O)[*:2]].R.Y.[am]}$$$$V2.0)", "values": [
      {"measurement": "pKi", "setting": "[1]", "value": 7.54},
      {"measurement": "pKi", "setting": "[2]", "value": 6.93}
    ]},
    {"molecule": "Ac-RHYINLIYRLRY-NH2", "values": [
      {"measurement": "pIC50", "setting": "[3]", "value": 7.92}
    ]},
    {"molecule": "CC[C@H](C)[C@H](NC(=O)[C@H](Cc1ccc(O)cc1)NC(=O)[C@H](Cc1cnc[nH]1)NC(=O)[C@H](CCCN=C(N)N)NC(C)=O)C(=O)N[C@@H](CC(N)=O)C(=O)N[C@@H](CC(C)C)C(=O)N[C@H](C(=O)N[C@H](C(=O)N[C@@H](CCCN=C(N)N)C(=O)N[C@H]1CCC[C@H]1C(=O)N[C@@H](CCCN=C(N)N)C(=O)N[C@@H](Cc1ccc(O)cc1)C(N)=O)[C@@H](C)O)[C@@H](C)CC", "note": "(HELM PEPTIDE1{[ac].R.H.Y.I.N.L.I.T.R.[O=C([C@@H]1CCC[C@@H]1N[*:1])[*:2]].R.Y.[am]}$$$$V2.0)", "values": [
      {"measurement": "pKi", "setting": "[4]", "value": "< 6.00"},
      {"measurement": "pKi", "setting": "[5]", "value": 8.00},
      {"measurement": "pKi", "setting": "[6]", "value": "< 6.30"},
      {"measurement": "pKi", "setting": "[7]", "value": "< 6.00"},
      {"measurement": "pEC50", "setting": "[8]", "value": 7.39}
    ]},
    {"molecule": "CC[C@H](C)[C@H](NC(=O)[C@H](Cc1ccc(O)cc1)NC(=O)[C@H](Cc1cnc[nH]1)NC(=O)[C@H](CCCN=C(N)N)NC(C)=O)C(=O)N[C@@H](CC(N)=O)C(=O)N[C@@H](CC(C)C)C(=O)N[C@@H](CCCN=C(N)N)C(=O)N[C@@H]1[C@H](C(=O)N[C@@H](CCCN=C(N)N)C(=O)N[C@@H]2[C@H](C(=O)N[C@@H](CCCN=C(N)N)C(=O)N[C@@H](Cc3ccc(O)cc3)C(N)=O)[C@H]2C(=O)OC)[C@H]1C(=O)OC", "note": "(HELM PEPTIDE1{[ac].R.H.Y.I.N.L.R.[COC(=O)[C@H]1[C@H](N[*:1])[C@@H]1C(=O)[*:2]].R.[COC(=O)[C@H]1[C@H](N[*:1])[C@@H]1C(=O)[*:2]].R.Y.[am]}$$$$V2.0)", "values": [
      {"measurement": "pKi", "setting": "[1]", "value": 7.30},
      {"measurement": "pKi", "setting": "[2]", "value": 6.21}
    ]},
    {"molecule": "CCCC[C@H](NC(=O)[C@H](CC(N)=O)NC(=O)[C@@H](NC(=O)[C@H](Cc1ccc(O)cc1)NC(=O)[C@H](CCCNC(=N)N)NC(=O)[C@H](CCCNC(=N)N)NC(C)=O)[C@@H](C)CC)C(=O)N[C@@H](CC(C)C)C(=O)N[C@H](C(=O)N[C@@H](CCCNC(=N)N)C(=O)N1CCC[C@H]1C(=O)N[C@@H](CCCNC(=N)N)C(=O)N[C@@H](Cc1ccc(O)cc1)C(N)=O)[C@@H](C)O", "note": "(HELM PEPTIDE1{[ac].R.R.Y.I.N.[Nle].L.T.R.P.R.Y.[am]}$$$$V2.0)", "values": [
      {"measurement": "pKi", "setting": "[4]", "value": "< 6.00"},
      {"measurement": "Emax", "setting": "[9]", "value": 70, "unit": "%"},
      {"measurement": "pKi", "setting": "[5]", "value": 7.12},
      {"measurement": "pKi", "setting": "[6]", "value": "< 6.00"},
      {"measurement": "pKi", "setting": "[7]", "value": 6.55},
      {"measurement": "pEC50", "setting": "[8]", "value": 7.28}
    ]},
    {"molecule": "Ac-RHYINLITRQRY-NH2", "values": [
      {"measurement": "pKi", "setting": "[4]", "value": 5.82},
      {"measurement": "pKi", "setting": "[5]", "value": "< 6.00"},
      {"measurement": "pKi", "setting": "[6]", "value": "< 6.00"},
      {"measurement": "pKi", "setting": "[10]", "value": 7.99},
      {"measurement": "pKi", "setting": "[11]", "value": 8.15},
      {"measurement": "pKi", "setting": "[7]", "value": "< 6.00"},
      {"measurement": "pEC50", "setting": "[12]", "value": 6.28},
      {"measurement": "pIC50", "setting": "[13]", "value": 6.88}
    ]}
  ]
}
